These results are taken from patent US20230373939A1 (VERTEX PHARMACEUTICALS INCORPORATED, priority 2020, published 2023).

Read-outs that look alike come from different tables or passages of the source.

The target of the assay is T1, F508del in NIH 3T3 cells (Homo sapiens, UniProt P13569, DEL508-508).
T1 construct: expressed in transfected cells
Description: 3T3 assay: membrane potential optical assay for F508del correction. The conditions noted are these: for EC50: read-out: 3T3 EC50. The class given is cell-based. The source says: 1. Membrane Potential Optical Methods for Assaying F508del Modulation Properties of Compounds
The assay utilizes fluorescent voltage sensing dyes to measure changes in membrane potential using a fluorescent plate reader (e.g., FLTPR III, Molecular Devices, Inc.) as a readout for increase in functional F508del in NIH 3T3 cells. The driving force for the response is the creation of a chloride ion gradient in conjunction with channel activation by a single liquid addition step after the cells have previously been treated with compounds and subsequently loaded with a voltage sensing dye.
2. Identification of Corrector Compounds
To identify correctors of F508del, a single-addition HTS assay format was developed. This HTS assay utilizes fluorescent voltage sensing dyes to measure changes in membrane potential on the FLIPR III as a measurement for increase in gating (conductance) of F508del in F508del NUT 3T3 cells. The F508del NUT 3T3 cell cultures were incubated with the corrector compounds at a range of concentrations for 18-24 hours at 37° C., and subsequently loaded with a redistribution dye. The driving force for the response is a Cl^− ion gradient in conjunction with channel activation with forskolin in a single liquid addition step using a fluorescent plate reader such as FLIPR III.
Bath Solution #1: (in mM) NaCl 160, KCl 4.5, CaCl2 2, MgCl2 1, HEPES 10, pH 7.4 with NaOH.
Chloride-free bath solution: Chloride salts in Bath Solution #1 (above) are substituted with gluconate salts.
NIH3T3 mouse fibroblasts stably expressing F508del were used for optical measurements of membrane potential. The cells were maintained at 37° C. in 5% CO2 and 90% humidity in Dulbecco's modified Eagle's medium supplemented with 2 mM glutamine, 10% fetal bovine serum, 1×NEAA, b-ME, 1×pen/strep, and 25 mM HEPES in 175 cm^2 culture flasks. For all optical assays, the cells were seeded at ˜20,000/well in 384-well Matrigel-coated plates. For the correction assays, the cells were cultured at 37° C. with and without compounds for 16-24 hours.

Where [1] appears, read: NIH3T3, NIH 3T3 cells, F508del, read-out: 3T3 Max Activity (%).
Setting [2] is: NIH3T3, read-out: 3T3 Max Activity (%).

T1 sequence (P13569 with tags, fused parts or gaps DEL508-508): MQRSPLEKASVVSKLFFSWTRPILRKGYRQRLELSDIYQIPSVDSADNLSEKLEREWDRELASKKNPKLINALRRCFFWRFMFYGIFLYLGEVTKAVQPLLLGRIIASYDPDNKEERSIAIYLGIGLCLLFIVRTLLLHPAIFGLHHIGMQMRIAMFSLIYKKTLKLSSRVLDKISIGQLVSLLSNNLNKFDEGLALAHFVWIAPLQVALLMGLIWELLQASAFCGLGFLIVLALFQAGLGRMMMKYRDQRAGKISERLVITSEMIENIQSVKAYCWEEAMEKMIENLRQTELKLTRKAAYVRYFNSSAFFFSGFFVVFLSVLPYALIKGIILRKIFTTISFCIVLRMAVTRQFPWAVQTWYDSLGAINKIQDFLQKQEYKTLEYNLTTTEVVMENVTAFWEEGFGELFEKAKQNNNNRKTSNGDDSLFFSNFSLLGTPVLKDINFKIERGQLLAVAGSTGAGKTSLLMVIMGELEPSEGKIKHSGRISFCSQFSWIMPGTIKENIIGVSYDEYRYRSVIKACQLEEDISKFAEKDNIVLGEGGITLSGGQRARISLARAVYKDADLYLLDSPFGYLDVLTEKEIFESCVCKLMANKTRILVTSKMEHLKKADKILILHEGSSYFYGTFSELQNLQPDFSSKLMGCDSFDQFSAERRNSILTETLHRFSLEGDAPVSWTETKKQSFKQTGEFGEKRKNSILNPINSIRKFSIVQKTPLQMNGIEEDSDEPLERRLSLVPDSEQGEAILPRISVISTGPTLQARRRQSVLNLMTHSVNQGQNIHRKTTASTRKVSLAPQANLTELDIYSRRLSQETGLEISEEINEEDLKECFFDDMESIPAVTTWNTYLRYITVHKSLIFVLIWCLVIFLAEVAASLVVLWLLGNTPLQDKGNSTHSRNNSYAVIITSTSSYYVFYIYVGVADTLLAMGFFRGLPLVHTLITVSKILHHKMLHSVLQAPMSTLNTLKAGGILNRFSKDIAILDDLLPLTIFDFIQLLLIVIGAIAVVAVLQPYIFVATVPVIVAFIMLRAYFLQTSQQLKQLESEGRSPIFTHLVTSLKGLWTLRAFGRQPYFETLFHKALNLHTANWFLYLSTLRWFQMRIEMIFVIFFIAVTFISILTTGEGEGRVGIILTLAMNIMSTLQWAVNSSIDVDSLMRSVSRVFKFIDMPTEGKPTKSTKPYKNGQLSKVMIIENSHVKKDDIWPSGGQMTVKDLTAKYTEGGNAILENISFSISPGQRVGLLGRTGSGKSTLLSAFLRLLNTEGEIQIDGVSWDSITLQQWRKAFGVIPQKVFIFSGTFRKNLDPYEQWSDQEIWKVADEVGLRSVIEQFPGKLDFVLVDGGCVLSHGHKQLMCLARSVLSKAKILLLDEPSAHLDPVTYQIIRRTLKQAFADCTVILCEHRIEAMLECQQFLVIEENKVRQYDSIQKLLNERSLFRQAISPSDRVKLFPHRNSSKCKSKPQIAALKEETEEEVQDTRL

In general, EC50 refers to the midpoint of the concentration-response curve. As for `CCc1sc(NS(=O)(=O)c2ccccc2)nc1-c1ccccc1` [Compound 21, N-(5-ethyl-4-phenyl-thiazol-2-yl)benzenesulfonamide], under setting [1], the Emax is greater than 60%. Besides, the EC50 (NIH 3T3 cells, F508del) lay in the range of 3 to 30 µM. `O=S(=O)(Nc1nn(Cc2ccccc2)cc1-c1ccccc1Cl)c1ccccc1` [Compound 110, N-[1-benzyl-4-(2-chlorophenyl)pyrazol-3-yl]benzenesulfonamide]: the Emax under setting [1] was less than 30%.

In the case of `Cc1ccc(C)c(-c2nc(NS(=O)(=O)c3ccccc3)sc2C)c1` [Compound 8, N-[4-(2,5-dimethylphenyl)-5-methyl-thiazol-2-yl]benzenesulfonamide], the Emax under setting [2] is greater than 60%. Where the note is “NIH 3T3 cells, F508del”, the EC50 is less than 1 µM.

`O=S(=O)(Nc1nc(-c2ccccc2)c(Oc2ccccc2)s1)c1ccccc1` [Compound 11, N-(5-phenoxy-4-phenyl-thiazol-2-yl)benzenesulfonamide]: the Emax under setting [1] is less than 30%. Turning to `Cc1ccc(-n2nc(NS(=O)(=O)c3ccccc3)cc2C)cc1` [Compound 100, N-[5-methyl-1-(p-tolyl)pyrazol-3-yl]benzenesulfonamide], under setting [1], the Emax is less than 30%. `CCCc1sc(NS(=O)(=O)c2ccccc2)nc1-c1ccc(OC)cc1` [Compound 20, N-[4-(4-methoxyphenyl)-5-propyl-thiazol-2-yl]benzenesulfonamide]: under setting [1], the Emax was greater than 60%. Further, the EC50 (NIH 3T3 cells, F508del) fell in the range of 1 to 3 µM. Consider `Cc1ccc(-c2cn(Cc3ccccc3)nc2NS(=O)(=O)c2ccccc2)cc1` [Compound 101, N-[1-benzyl-4-(p-tolyl)pyrazol-3-yl]benzenesulfonamide], for which the Emax under setting [1] is 30 to 60%. Moreover, the concentration for a half-maximal effect (EC50) (NIH 3T3 cells, F508del) fell in the range of 1 to 3 µM. Turning to `O=S(=O)(Nc1cc(-c2ccccc2)nc(-c2ccccc2)n1)c1ccccc1` [Compound 131, N-(2,6-diphenylpyrimidin-4-yl)benzenesulfonamide], the Emax under setting [1] was greater than 60%. For the same compound, the EC50 (NIH 3T3 cells, F508del) was 1 to 3 µM. Turning to `O=C(c1sc(NS(=O)(=O)c2ccccc2)nc1-c1ccccc1)N1CCCCC1` [Compound 34, N-[4-phenyl-5-(piperidine-1-carbonyl)thiazol-2-yl]benzenesulfonamide], under setting [1], the Emax is less than 30%. As to `COc1ccc(-c2cc(NS(=O)(=O)c3ccccc3)nn2-c2c(C)cc(C)cc2C)cc1` [Compound 59, N-[5-(4-methoxyphenyl)-1-(2,4,6-trimethylphenyl)pyrazol-3-yl]benzenesulfonamide], under setting [1], the Emax was 30 to 60%. The EC50 (NIH 3T3 cells, F508del) is less than 1 µM. As to `Cc1cc(C)c(-n2nc(NS(=O)(=O)c3ccccc3)cc2C2CCCCC2)c(C)c1` [Compound 64, N-[5-cyclohexyl-1-(2,4,6-trimethylphenyl)pyrazol-3-yl]benzenesulfonamide], under setting [1], the Emax was greater than 60%. For the same compound, the EC50 (NIH 3T3 cells, F508del) is less than 1 µM. In the case of `O=S(=O)(Nc1nn(Cc2ccccc2)cc1C1CCCCC1)c1ccccc1` [Compound 103, N-(1-benzyl-4-cyclohexyl-pyrazol-3-yl)benzenesulfonamide], the Emax under setting [1] is less than 30%. On to `Cc1ccc(NS(=O)(=O)c2ccccc2)nc1-c1cccc(C)c1C` [Compound 137, N-[6-(2,3-Dimethylphenyl)-5-methyl-2-pyridyl]benzenesulfonamide], for which the Emax under setting [1] is greater than 60%. The EC50 (NIH 3T3 cells, F508del) lay within 1 to 3 µM.

As to `O=S(=O)(Nc1nn(-c2cccc(Cl)c2)cc1C1CCCCC1)c1ccccc1` [Compound 83, N-[1-(3-chlorophenyl)-4-cyclohexyl-pyrazol-3-yl]benzenesulfonamide], under setting [1], the Emax was less than 30%. Take `Cc1cc(C)c(-n2nc(NS(=O)(=O)c3ccccc3)cc2C(C)C)c(C)c1` [Compound 66, N-[5-isopropyl-1-(2,4,6-trimethylphenyl)pyrazol-3-yl]benzenesulfonamide]: the Emax under setting [1] was in the range of 30 to 60%. Further, the EC50 (NIH 3T3 cells, F508del) fell in the range of 1 to 3 µM. In the case of `O=S(=O)(Nc1nc(-c2ccc(Cl)cc2)c(S(=O)(=O)c2ccccc2)s1)c1ccccc1` [Compound 16, N-[5-(benzenesulfonyl)-4-(4-chlorophenyl)thiazol-2-yl]benzenesulfonamide], under setting [1], the Emax lay in the range of 30 to 60%. Further, the EC50 (NIH 3T3 cells, F508del) is 1 to 3 µM. The corresponding values for `Cc1ccc(-c2cc(NS(=O)(=O)c3ccccc3)nc(-c3ccc(C)cc3)c2)cc1` [Compound 143, N-[4,6-bis(p-tolyl)-2-pyridyl]benzenesulfonamide] are greater than 60% and 1 to 3 µM. On to `Cc1nc(NS(=O)(=O)c2ccccc2)sc1-c1ccccc1` [Compound 26, N-(4-methyl-5-phenyl-thiazol-2-yl)benzenesulfonamide], for which, under setting [2], the Emax was greater than 60%. The EC50 (NIH 3T3 cells, F508del) fell in the range of 1 to 3 µM. In the case of `O=S(=O)(Nc1cc(Oc2ccccc2)cc(Oc2ccccc2)n1)c1ccccc1` [Compound 133, N-(4,6-Diphenoxy-2-pyridyl)benzenesulfonamide], the Emax under setting [1] is greater than 60%. Besides, the concentration for a half-maximal effect (EC50) (NIH 3T3 cells, F508del) was in the range of 1 to 3 µM. On to `C=C(C)c1cn(Cc2ccccc2)nc1NS(=O)(=O)c1ccccc1` [Compound 105, N-(1-benzyl-4-isopropenyl-pyrazol-3-yl)benzenesulfonamide], for which, under setting [1], the Emax was less than 30%. As for `COC(=O)Cc1nc(NS(=O)(=O)c2ccccc2)sc1-c1ccccc1` [Compound 40, methyl 2-[2-(benzenesulfonamido)-5-phenyl-thiazol-4-yl]acetate], under setting [1], the Emax was in the range of 30 to 60%. Further, the EC50 (NIH 3T3 cells, F508del) fell in the range of 3 to 30 µM. As to `Cc1ccccc1-c1cn(Cc2ccccc2)nc1NS(=O)(=O)c1ccccc1` [Compound 115], under setting [1], the Emax is less than 30%. `O=C(NCc1ccccc1)c1sc(NS(=O)(=O)c2ccccc2)nc1-c1ccccc1` [Compound 14, 2-(benzenesulfonamido)-N-benzyl-4-phenyl-thiazole-5-carboxamide]: under setting [1], the Emax was in the range of 30 to 60%. For the same compound, the EC50 (NIH 3T3 cells, F508del) was in the range of 3 to 30 µM. As to `O=S(=O)(Nc1cc(-c2ccccc2)cc(Oc2ccccc2)n1)c1ccccc1` [Compound 142, N-(6-phenoxy-4-phenyl-2-pyridyl)benzenesulfonamide], under setting [1], the Emax was greater than 60%. Also, where the note is “NIH 3T3 cells, F508del”, the EC50 is less than 1 µM. Consider `O=S(=O)(Nc1ncc(-c2ccccc2)nc1-c1ccccc1)c1ccccc1` [Compound 118, N-(3,5-diphenylpyrazin-2-yl)benzenesulfonamide], for which the Emax under setting [1] was greater than 60%. Besides, the EC50 (NIH 3T3 cells, F508del) lay within 1 to 3 µM.

For the compound `COc1ccccc1C1(c2cnc(NS(=O)(=O)c3ccccc3)s2)CC1` [Compound 25, N-[5-[1-(2-methoxyphenyl)cyclopropyl]thiazol-2-yl]benzenesulfonamide], under setting [2], the Emax is greater than 60%. Under “NIH 3T3 cells, F508del”, the EC50 lay in the range of 3 to 30 µM. For the compound `CC(C)(C)c1nc(NS(=O)(=O)c2ccccc2)sc1C#N` [Compound 45, N-(4-tert-butyl-5-cyano-thiazol-2-yl)benzenesulfonamide], under setting [1], the Emax is less than 30%. With `O=S(=O)(Nc1cc(Cc2ccccc2)n(-c2ccccc2)n1)c1ccccc1` [Compound 71, N-(5-benzyl-1-phenyl-pyrazol-3-yl)benzenesulfonamide], the Emax under setting [1] was less than 30%.

As for `O=S(=O)(Nc1ncc(Cc2ccccc2)s1)c1ccccc1` [Compound 32, N-[5-benzyl-thiazol-2-yl]benzenesulfonamide], the Emax under setting [1] lay within 30 to 60%.

For `O=S(=O)(NC1=NC(c2ccccc2)C=C(c2ccccc2)S1)c1ccccc1` (stereo not shown) [Compound 117, N-(4,6-diphenyl-4H-1,3-thiazin-2-yl)benzenesulfonamide], the Emax under setting [1] lay in the range of 30 to 60%. Moreover, under “NIH 3T3 cells, F508del”, the EC50 lay within 1 to 3 µM. As to `Cc1ccc(-c2nc(NS(=O)(=O)c3ccccc3)cc(C)c2C)c(C)c1` [Compound 156], under setting [1], the Emax is greater than 60%. For the same compound, the EC50 (NIH 3T3 cells, F508del) lay within 3 to 30 µM. For the compound `O=S(=O)(Nc1nn(Cc2ccccc2)cc1-c1ccccc1)c1ccccc1` [Compound 107, N-(1-benzyl-4-phenyl-pyrazol-3-yl)benzenesulfonamide], the Emax under setting [1] was less than 30%. On the same count and under the same terms, as for `CC(C)(C)NC(=O)c1sc(NS(=O)(=O)c2ccccc2)nc1-c1ccccc1` [Compound 36, 2-(benzenesulfonamido)-N-tert-butyl-4-phenyl-thiazole-5-carboxamide], the figure is less than 30%. Turning to `Cc1cc(NS(=O)(=O)c2ccccc2)nc(-c2ccc(C)c(C)c2)c1` [Compound 153], under setting [1], the Emax was greater than 60%. The concentration giving a half-maximal response (EC50) (NIH 3T3 cells, F508del) fell in the range of 3 to 30 µM. Turning to `CC1CN(c2nc(NS(=O)(=O)c3ccccc3)cc(Oc3ccccc3)n2)C(C)(C)C1` (stereo not shown) [Compound 129, N-[6-phenoxy-2-(2,2,4-trimethylpyrrolidin-1-yl)pyrimidin-4-yl]benzenesulfonamide], under setting [1], the Emax is less than 30%. Consider `Cc1ccc(-c2nc(NS(=O)(=O)c3ccccc3)sc2-c2ccc(C)cc2)cc1` [Compound 10, N-[4,5-bis(p-tolyl)thiazol-2-yl]benzenesulfonamide], for which the Emax under setting [2] was in the range of 30 to 60%. Also, the EC50 (NIH 3T3 cells, F508del) was less than 1 µM.
